Results from paper PMC3242598, “Phase I study of BIBF 1120 with docetaxel and prednisone in metastatic chemo-naive hormone-refractory prostate cancer patients” (British Journal of Cancer, 2011).
Read-outs that look alike come from different tables or passages of the source.

What was measured:
[1] = Plasma pharmacokinetics of docetaxel (HPLC-MS/MS); assay type: in vivo; conditions: human, docetaxel 75 mg m^−2 IV + BIBF 1120 250 mg BID; for half-life: read-out: t1/2, gMean (gCV%) (converted); for Tmax / AUC(0-inf) / Cmax: iv; for Tmax: read-out: tmax, median and range; for AUC(0-inf): read-out: AUC0−∞, gMean (gCV%); for Cmax: read-out: Cmax, gMean (gCV%)
Description: Peripheral blood was collected on days 1, 2, 3, 8, and 15 of TCs 1 and 2, and on days 2 and 15 of TCs 3–6 to perform the PK/pharmacodynamic (PD) analysis. Plasma concentrations of BIBF 1120 were determined after the first dose over the time interval 0–24 h on day 2 of TCs 1 and 2 to investigate single-dose PK characteristics of BIBF 1120 on the day after administration of single doses of docetaxel. Levels of BIBF 1120 were also determined on days 8 and 15 of TCs 1 and 2 to investigate steady-state levels.
Plasma concentrations of BIBF 1120 and docetaxel were analysed by a validated method using high-performance liquid chromatography coupled with tandem mass spectrometry (HPLC-MS/MS) in the Department of Drug Metabolism and Pharmacokinetics (Boehringer Ingelheim Pharma GmbH & Co KG, Biberach, Germany). The assay comprises sample clean-up by automated solid-phase extraction in a 96-well plate format. Chromatography was achieved on an analytical C18 reversed phase HPLC column with gradient elution. The substance was detected and quantified by HPLC-MS/MS using electrospray ionisation in the positive ion mode. Docetaxel was analysed by HPLC-MS/MS using paclitaxel as an internal standard. The assay comprises sample clean-up by liquid–liquid extraction and chromatography on an analytical C18 reversed phase HPLC column with isocratic elution. […] The lower limit of quantification for BIBF 1120 and metabolites was 0.5 ng ml^−1 plasma, using a plasma volume of 200 μl. For docetaxel, the lower limit was 2.5 ng ml^−1 plasma, using a plasma volume of 100 μl.
The calculated parameters were plasmatic peak concentrations following the first dose (Cmax), half-life time (t1/2), area under the plasma concentration–time curve (AUCt), apparent clearance after oral administration, and apparent volume of distribution during the terminal phase.

[2] = system: HRPC; conditions: cited from earlier work

half-life ([1]; treatment cycle 2 (n=12))	Tmax ([1]; treatment cycle 1 (n=12))	Tmax ([1]; treatment cycle 2 (n=12))	half-life ([1]; male, treatment cycle 1 (n=12))	AUC(0-inf) ([1]; male, treatment cycle 1 (n=12))	Cmax ([1]; male, treatment cycle 1 (n=12))	AUC(0-inf) ([1]; male, treatment cycle 2 (n=12))	Cmax ([1]; male, treatment cycle 2 (n=12))	Compound	PSA responses ([2]; docetaxel monotherapy or with estramustine, phase III, first-line metastatic HRPC, ref Petrylak et al, 2004, Tannock et al)	Median survival ([2]; docetaxel with corticosteroid in HRPC, ref Petrylak et al, 2004, Tannock et al, Berthold et al, 2008)	PSA response rates ([2]; HRPC patients, ref Chi et al, 2008, Dror Michaelson et al, 2009, Sonpavde et al, 2010)
19.4 h	1.02 h	1.01 h	20.2 h	1860 ng·h/mL	1510 ng/mL	2460 ng·h/mL	1980 ng/mL	CC(=O)O[C@@]12CO[C@@H]1C[C@H](O)[C@@]1(C)C(=O)[C@H](O)C3=C(C)[C@@H](OC(=O)[C@H](O)[C@@H](NC(=O)OC(C)(C)C)c4ccccc4)C[C@@](O)([C@@H](OC(=O)c4ccccc4)[C@H]21)C3(C)C [docetaxel]	45–50%	< 20 months	–
–	–	–	–	–	–	–	–	CCN(CC)CCNC(=O)c1c(C)[nH]c(/C=C2\C(=O)Nc3ccc(F)cc32)c1C [sunitinib]	–	–	3.6–12.1%
